Results from patent US8173696B2, “Inhibitors of cysteine proteases and methods of use thereof” (Baylor University, priority 2007, dated 2012).
Like-named read-outs stand apart in the source and are kept apart here.

Experiments:
Cat B = Cat B (Homo sapiens, UniProt P07858); experiment: Cathepsin B inhibition in vitro; assay type: biochemical
Procedure: For in vitro cysteine protease inhibition determinations, a compound's effectiveness can be given by an IC50 value. In these assays, the enzyme to be inhibited (e.g., a cruzain or cruzipain, a rhodesain, a brucipain, a congopain, a falcipain, CPB2.8 Delta CTE, a cathepsin-L, cathepsin-B, a cathepsin-H, a cathepsin-K, a cathepsin-S) is first incubated with varying concentrations (about 20-50,000 nM) of a test compound. To this is added a short peptide substrate of the enzyme of 1 to 10 amino acids, usually a di- or tri-peptide substrate, which is labeled with either a fluorogenic or chromogenic moiety. An exemplary chromogenic moiety is p-nitro-anilide (pNA). […] Exemplary peptide substrates include Phe-Arg, Arg-Arg, Phe-Arg-X (X=Ala, Arg), and Phe-X-Ser-Arg-Gln (X=Arg, 4-aminomethyl-phenylalanine (Arm), 4-aminomethyl-N-isopropyl-phenylalanin-e (laf), 4-piperidinyl-alanine (Ppa) or 4-aminocyclohexyl-alanine (Aca)). Cleavage of the labeled substrate induces a chromogenic or fluorescent signal that is measured using spectrophotometer or a spectrofluorometer, respectively. Signals induced in the presence of varying concentrations of test compound are measured in comparison to a positive control of enzyme and substrate and a negative control of enzyme in diluent (e.g., DMSO). Spontaneous cleavage of substrate is measured in controls with substrate alone. IC50 values are determined graphically using compound inhibitor concentrations in the linear portion of a plot of inhibition versus log [I].

Human liver cathepsin L = target: T1, Human liver cathepsin L (Homo sapiens, UniProt P07711); experiment: Cathepsin L inhibition in vitro (Z-FR-AMC fluorescence); assay type: biochemical
T1 construct: from tissue; host or cells: human liver
T1 sequence (P07711 114-333): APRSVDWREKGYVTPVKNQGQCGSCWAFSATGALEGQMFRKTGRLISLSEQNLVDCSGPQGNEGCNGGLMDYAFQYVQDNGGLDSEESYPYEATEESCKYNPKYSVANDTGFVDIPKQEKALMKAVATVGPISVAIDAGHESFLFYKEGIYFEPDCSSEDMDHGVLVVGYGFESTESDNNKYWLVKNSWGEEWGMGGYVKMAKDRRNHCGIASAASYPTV
Procedure: Human liver cathepsin L (1 nM) was incubated in 50 mM sodium acetate buffer, pH 5.5 containing 1 mM EDTA, 2 mM DTT, 0.001% (v/v) brij 35 with potential inhibitors at 20 different concentrations (from 0.05 nM to 50 μM) at 25° C. for 5 minutes before 100 μL substrate (benzyloxycarbonyl-L-phenylalanyl-L-arginyl-7-amido-4-methylcoumarin, abbreviated as Z-FR-AMC, 50 μM in final assay condition) was added to the enzyme-inhibitor mixture; total volume was 200 μL. Controls were performed using enzyme alone, substrate alone, and enzyme with DMSO. […] Spectra were taken at 3-sec intervals for 3 minutes. IC50 values were determined by non-linear regression analysis using vo(inh)=VMAX/{1+10(logIC50−x)*Hillslope} and Prism software (GraphPad).

Cruzain = Cruzain (Trypanosoma cruzi, UniProt P25779); experiment: biochemical; assay type: biochemical; settings: Table A; 0.1 nM cruzain, pH 5.50, 25° C., 10 μM Z-Phe-Arg-AMC
Sequence of Cruzain (P25779 123-467): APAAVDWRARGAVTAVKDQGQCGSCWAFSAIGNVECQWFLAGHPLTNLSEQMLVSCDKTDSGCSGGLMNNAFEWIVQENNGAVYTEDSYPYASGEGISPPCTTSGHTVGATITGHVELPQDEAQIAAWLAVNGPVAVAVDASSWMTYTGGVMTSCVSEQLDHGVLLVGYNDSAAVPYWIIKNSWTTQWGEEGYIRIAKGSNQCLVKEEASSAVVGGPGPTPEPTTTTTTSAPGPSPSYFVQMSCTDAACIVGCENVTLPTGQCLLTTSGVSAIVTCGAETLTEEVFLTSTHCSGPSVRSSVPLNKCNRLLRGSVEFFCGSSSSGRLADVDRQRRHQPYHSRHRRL
Procedure: Cruzain (0.1 nM) in 100 mM sodium acetate buffer (pH 5.50) containing 5 mM DTT was preincubated for 5 min at 25° C. with inhibitor.

cathepsin L [1] = experiment: Inhibition of activated cathepsin L in DU-145 cell lysates; assay type: cell-based; settings: DU-145 cell lysates preincubated for 24 h with compound, following removal of media, replicate samples a-c; for activity (cathepsin L activity after activation): control 6.93E−03; for cps (cathepsin L activity after activation): control 26950
Procedure: (§1) A prostrate carcinoma derived cell line (DU-145) was maintained in free phenol red DMEM supplemented with 10% fetal bovine serum, 1% glutamine, 1% glutamax, 1% Penicillin-Streptomycin and 1 mM sodium pyruvate, at 37° C. in an atmosphere of 95% air/5% CO2. DU145 was plated at 4×10^6 cells/10 cm Petri dish for dense, super confluent density. These cultures were incubated for 3 days before collection. Twenty-four hours prior to harvesting, cells were fed with serum-free media or serum-free media containing inhibitors at a final concentration of 20 μM. On the day of harvesting, the serum-free medium was collected for assay of Cathepsin L activity secreted in the medium. The cells were rinsed in cold PBS (pH 7.2) and collected in cold PBS containing […]. The cells were lysed using a Sonicator (Misonix 3000) at medium setting with pauses at 0° C. for temperature equilibration. Then the homogenate was centrifuged at 13,000×g for 20 min and the supernatant saved. […] Fluorescence was measured in a Fluoro Max 2 (Jobin Yvon) spectrofluorometer at an excitation wavelength of 355 nm and an emission wavelength of 460 nm. The substrate is hydrolyzed by cathepsin L and to a smaller extent by cathepsin B, therefore the activity is referred to as cathepsin L+B activity. Data analysis was performed using Prism software (GraphPad version 4). Data corresponding to cathepsin L activity (after activation) in cell lysates preincubated for 24 h with Compound 14 and following the removal of media is summarized in Table 5 below. Data corresponding to cathepsin L activity (after activation) in cell lysates preincubated for 24 h with Compound 27 and following the removal of media is summarized in Table 6 below.

cathepsin L [2] = experiment: Inhibition of activated cathepsin L secreted in DU-145 cell conditioned media; assay type: cell-based; settings: compound 20 μM, replicate samples a-c
Procedure: as §1, with “cell conditioned media in the presence of” for “cell lysates preincubated for 24 h with”, “14 (20 μM)” for “14 and following the removal of media”, “Table 3” for “Table 5”, “27 (20 μM)” for “27 and following the removal of media”, “Table 4” for “Table 6”

[3] = Table A, 1 nM human liver cathepsin L, pH 5.5, 25° C., 50 μM Z-FR-AMC, read-out: Cat L IC50

| SMILES | IC50 (Cruzain) [nM] | IC50 (Human liver cathepsin L; [3]) [nM] | also measured |
| --- | --- | --- | --- |
| CC/C(=N\NC(N)=S)c1cccc(Br)c1 [Compound 5, 3-Bromopropiophenone thiosemicarbazone] |  |  | IC50 (Cat B; Table B, unit inferred, read-out: Cat B): > 50 µM; IC50 (Human liver cathepsin L; Table B, unit inferred, read-out: Cat L): > 10000 nM |
| CC/C(=N\NC(N)=S)c1cccc([N+](=O)[O-])c1 [Compound 6, 3-Nitropropiophenone thiosemicarbazone] | 860 | 5790 |  |
| CC/C(=N\NC(N)=S)c1cccc(O)c1 [Compound 7, 1-(3-Hydroxyphenyl)-1-propanone thiosemicarbazone] |  | 2570 |  |
| CC/C(=N\NC(N)=S)c1cccc(N)c1 [Compound 8, 3-Aminopropiophenone thiosemicarbazone] | 3640 | 1640 |  |
| NC(=S)N/N=C(\c1ccccc1)c1cccc(Br)c1 [Compound 13, Phenyl(3-bromophenyl) ketone thiosemicarbazone] | 80 | 16200 |  |
| NC(=S)N/N=C1\CCCc2c(Br)cccc21 [Compound 20, 5-Bromo-1-tetralone thiosemicarbazone] | 1200 | 367 |  |
| NC(=S)N/N=C1\CCCc2ccc(Br)cc21 [Compound 21, 7-Bromo-1-tetralone thiosemicarbazone] | 17 | 619 |  |
| NC(=S)N/N=C1\CCS(=O)(=O)c2ccc(Br)cc21 [Compound 23, 6-Bromo-1,1-dioxo-1-thiochroman-4-one thiosemicarbazone] | 210 | 1 |  |
| NC(=S)N/N=C1\CCS(=O)(=O)c2c(Br)cc(Br)cc21 [Compound 24, 6,8-Dibromo-1,1-dioxo-1-thiochroman-4-one thiosemicarbazone] | 820 | 716 |  |
| NC(=S)N/N=C1\CCOc2ccccc21 [Compound 26] |  | 6380 |  |
| NC(=S)N/N=C1\CCS(=O)(=O)c2ccccc21 [Compound 27] |  | 5050 | activity (cathepsin L activity after activation) (cathepsin L [1]; listed as 27a): 0.00308 µM/s; activity (cathepsin L activity after activation) (cathepsin L [1]; listed as 27b): 0.00255 µM/s; activity (cathepsin L activity after activation) (cathepsin L [1]; listed as 27c): 0.00275 µM/s; cps (cathepsin L activity after activation) (cathepsin L [1]; listed as 27a): 11990 cps; cps (cathepsin L activity after activation) (cathepsin L [1]; listed as 27b): 9918 cps; cps (cathepsin L activity after activation) (cathepsin L [1]; listed as 27c): 10690 cps; activity (cathepsin L activity after activation) (cathepsin L [2]; control 1.50E−03, listed as 27a): 0.000101 µM/s; activity (cathepsin L activity after activation) (cathepsin L [2]; control 1.50E−03, listed as 27b): 9.46e-05 µM/s; activity (cathepsin L activity after activation) (cathepsin L [2]; control 1.50E−03, listed as 27c): 9.81e-05 µM/s; cps (cathepsin L activity after activation) (cathepsin L [2]; control 5848, listed as 27a): 393.7 cps; cps (cathepsin L activity after activation) (cathepsin L [2]; control 5848, listed as 27b): 367.5 cps; cps (cathepsin L activity after activation) (cathepsin L [2]; control 5848, listed as 27c): 381.1 cps |
| CC(=O)C1=CCCc2ccccc21 [Compound 37, [1-(3,4-Dihydronaphthalenyl)]methyl ketone] |  | > 10000 |  |
| C=CC(=O)C1=CCCc2ccc(Br)cc21 [Compound 38] |  | 372 |  |
| NC(=S)N/N=C1\CCC(c2ccc(Br)cc2)C1 (stereo not shown) [Compound 46] | > 5000 | > 10000 |  |
| NC(=S)N/N=C1\CCCC(c2ccc(Br)cc2)C1 (stereo not shown) [Compound 47] | > 7000 | 2910 |  |
| NC(=S)N/N=C1\CCc2ccccc2O1 [Compound 48] | > 17000 | 2450 |  |
| NC(=S)N/N=C1\CCc2ccccc21 [Compound 49] |  | > 10000 |  |
| NC(=S)N/N=C1\CCc2ccc(Br)cc2C1 [Compound 69, 7-Bromo-2-tetralone thiosemicarbazone] | > 17000 | 4260 | IC50 (Cat B; Table A, read-out: Cat B IC50): < 50 µM |
| NC(=S)N/N=C1\CCc2c(Br)cc(Br)cc2C1 [Compound 70, 5,7-Dibromo-2-tetralone thiosemicarbazone] | 4480 | 10900 | IC50 (Cat B; Table A, read-out: Cat B IC50): > 50 µM |
